Experimental data from the NIST ThermoML archive (doi:10.1021/je800110r).
Numbers after ± are expanded uncertainties.

Conditions: Liquid, Vibrating tube method

CCCCCCCCCC [decane]
Conditions	mass density [kg/m3]
333.16 K, 13554 kPa	711.7 ± 2
333.16 K, 13566 kPa	711.8 ± 2
333.16 K, 13581 kPa	711.8 ± 2
333.16 K, 13900 kPa	711.9 ± 2
333.16 K, 14258 kPa	712.3 ± 2
333.16 K, 14275 kPa	712.3 ± 2
333.16 K, 14293 kPa	712.4 ± 2
333.16 K, 14310 kPa	712.3 ± 2
333.16 K, 14334 kPa	712.3 ± 2
333.16 K, 14348 kPa	712.4 ± 2
333.16 K, 14369 kPa	712.4 ± 2
333.16 K, 14389 kPa	712.4 ± 2
333.16 K, 14403 kPa	712.4 ± 2
333.16 K, 14421 kPa	712.5 ± 2
333.16 K, 14436 kPa	712.4 ± 2
333.16 K, 14457 kPa	712.6 ± 2
333.16 K, 14470 kPa	712.5 ± 2
333.16 K, 14484 kPa	712.6 ± 2
333.16 K, 14501 kPa	712.6 ± 2
333.16 K, 14514 kPa	712.5 ± 2
333.16 K, 14528 kPa	712.6 ± 2
333.16 K, 14543 kPa	712.4 ± 2
333.16 K, 14559 kPa	712.6 ± 2
333.16 K, 14581 kPa	712.6 ± 2
333.16 K, 14601 kPa	712.6 ± 2
333.16 K, 14623 kPa	712.6 ± 2
333.16 K, 14640 kPa	712.6 ± 2
333.16 K, 14660 kPa	712.7 ± 2
333.16 K, 14678 kPa	712.6 ± 2
333.16 K, 14696 kPa	712.7 ± 2
333.16 K, 14711 kPa	712.7 ± 2
333.16 K, 14728 kPa	712.8 ± 2
333.16 K, 14750 kPa	712.8 ± 2
333.16 K, 14770 kPa	712.8 ± 2
333.16 K, 14785 kPa	712.7 ± 2
333.16 K, 14808 kPa	712.8 ± 2
333.16 K, 14828 kPa	712.8 ± 2
333.16 K, 14846 kPa	712.8 ± 2
333.16 K, 14864 kPa	712.9 ± 2
333.16 K, 14881 kPa	712.7 ± 2
333.16 K, 14984 kPa	712.9 ± 2
333.16 K, 15187 kPa	713 ± 2
333.16 K, 15232 kPa	713.1 ± 2
333.16 K, 15248 kPa	713.1 ± 2
333.16 K, 15291 kPa	713.1 ± 2
333.16 K, 15313 kPa	713.2 ± 2
333.16 K, 15331 kPa	713.3 ± 2
333.16 K, 15356 kPa	713.2 ± 2
333.16 K, 15370 kPa	713.2 ± 2
333.16 K, 15519 kPa	713.4 ± 2
333.16 K, 15581 kPa	713.3 ± 2
333.16 K, 18702 kPa	716 ± 2
333.16 K, 18825 kPa	715.9 ± 2
333.16 K, 21785 kPa	718.5 ± 2
333.16 K, 21820 kPa	718.6 ± 2
333.16 K, 25349 kPa	721.2 ± 2.1
333.16 K, 25383 kPa	721.2 ± 2.1
333.16 K, 25434 kPa	721.3 ± 2.1
333.16 K, 25480 kPa	721.3 ± 2.1
333.16 K, 25520 kPa	721.3 ± 2.1
333.16 K, 25560 kPa	721.3 ± 2.1
333.16 K, 25612 kPa	721.4 ± 2.1
333.16 K, 25653 kPa	721.5 ± 2.1
333.16 K, 26114 kPa	721.7 ± 2.1
333.16 K, 26176 kPa	721.8 ± 2.1
333.16 K, 26222 kPa	721.8 ± 2.1
333.16 K, 26260 kPa	721.9 ± 2.1
333.16 K, 26304 kPa	721.8 ± 2.1
333.16 K, 26342 kPa	721.9 ± 2.1
333.16 K, 27466 kPa	722.8 ± 2.1
333.16 K, 27509 kPa	722.8 ± 2.1
333.16 K, 27558 kPa	722.8 ± 2.1
333.16 K, 27603 kPa	722.9 ± 2.1
333.16 K, 27660 kPa	722.9 ± 2.1
333.16 K, 27703 kPa	722.9 ± 2.1
333.16 K, 27755 kPa	722.9 ± 2.1
333.16 K, 27812 kPa	723 ± 2.1
333.16 K, 27849 kPa	723.1 ± 2.1
333.16 K, 27894 kPa	723.1 ± 2.1
333.16 K, 27945 kPa	723 ± 2.1
333.16 K, 27985 kPa	723.2 ± 2.1
333.16 K, 28031 kPa	723.2 ± 2.1
333.16 K, 28077 kPa	723.1 ± 2.1
333.16 K, 28117 kPa	723.2 ± 2.1
333.16 K, 28185 kPa	723.3 ± 2.1
333.16 K, 28218 kPa	723.2 ± 2.1
333.16 K, 28262 kPa	723.3 ± 2.1
333.16 K, 28293 kPa	723.4 ± 2.1
333.16 K, 28324 kPa	723.5 ± 2.1
333.16 K, 28354 kPa	723.3 ± 2.1
333.16 K, 28395 kPa	723.5 ± 2.1
333.16 K, 28436 kPa	723.4 ± 2.1
333.16 K, 28472 kPa	723.5 ± 2.1
333.16 K, 28508 kPa	723.5 ± 2.1
333.16 K, 28555 kPa	723.6 ± 2.1
333.16 K, 28586 kPa	723.5 ± 2.1
333.16 K, 29016 kPa	723.9 ± 2.1
333.16 K, 29059 kPa	724 ± 2.1
333.16 K, 29107 kPa	724 ± 2.1
333.16 K, 29157 kPa	724.1 ± 2.1
333.16 K, 29189 kPa	724 ± 2.1
333.16 K, 29233 kPa	724 ± 2.1
333.16 K, 29260 kPa	724.2 ± 2.1
333.16 K, 29300 kPa	724.2 ± 2.1
333.16 K, 29339 kPa	724.2 ± 2.1
333.16 K, 29378 kPa	724.2 ± 2.1
333.16 K, 29411 kPa	724.2 ± 2.1
333.16 K, 29456 kPa	724.2 ± 2.1
333.16 K, 29495 kPa	724.1 ± 2.1
333.16 K, 29541 kPa	724.3 ± 2.1
333.16 K, 29575 kPa	724.4 ± 2.1
333.16 K, 29625 kPa	724.4 ± 2.1
333.16 K, 29666 kPa	724.3 ± 2.1
333.16 K, 29700 kPa	724.3 ± 2.1
333.16 K, 29730 kPa	724.6 ± 2.1
333.16 K, 29759 kPa	724.5 ± 2.1
333.16 K, 29794 kPa	724.6 ± 2.1
333.17 K, 25689 kPa	721.5 ± 2.1
333.17 K, 25730 kPa	721.5 ± 2.1
333.17 K, 25766 kPa	721.6 ± 2.1
333.17 K, 25801 kPa	721.5 ± 2.1
333.17 K, 25849 kPa	721.7 ± 2.1
333.17 K, 25908 kPa	721.7 ± 2.1
333.17 K, 25950 kPa	721.7 ± 2.1
333.17 K, 25992 kPa	721.7 ± 2.1
333.17 K, 26034 kPa	721.7 ± 2.1
333.17 K, 26071 kPa	721.8 ± 2.1
333.17 K, 28623 kPa	723.6 ± 2.1
333.17 K, 28670 kPa	723.7 ± 2.1
333.17 K, 28702 kPa	723.6 ± 2.1
333.17 K, 28729 kPa	723.8 ± 2.1
333.17 K, 28761 kPa	723.8 ± 2.1
333.17 K, 28807 kPa	723.7 ± 2.1
333.17 K, 28849 kPa	723.8 ± 2.1
333.17 K, 28887 kPa	723.7 ± 2.1
333.17 K, 28930 kPa	724 ± 2.1
333.17 K, 28974 kPa	723.9 ± 2.1
